Molecular target: T1, Adenosine receptor A1 (Rattus norvegicus, UniProt P25099)
T1 sequence (P25099 whole entry): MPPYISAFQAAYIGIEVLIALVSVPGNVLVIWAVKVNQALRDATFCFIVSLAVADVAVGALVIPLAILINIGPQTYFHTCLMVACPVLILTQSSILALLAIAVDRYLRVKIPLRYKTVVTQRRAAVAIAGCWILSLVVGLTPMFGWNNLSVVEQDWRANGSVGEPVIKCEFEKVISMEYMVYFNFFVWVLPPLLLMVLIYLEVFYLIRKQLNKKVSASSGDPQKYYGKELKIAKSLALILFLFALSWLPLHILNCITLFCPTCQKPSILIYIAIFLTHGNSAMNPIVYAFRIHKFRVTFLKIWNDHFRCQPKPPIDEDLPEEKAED
Assay: Inhibition of [3H]CHA binding to Adenosine A1 receptor in rat brain membranes
Type: cell membranes

| Ki [µM] | Structure (SMILES) |
| --- | --- |
| 0.0048 | CCCn1c(=O)c2[nH]c(-c3ccc(Cl)cc3N)nc2n(CCC)c1=O |
| 0.31 | Cc1nn(C)c2c(=O)[nH]c(-c3ccc(Cl)cc3N)nc12 |

— ChEMBL document CHEMBL1124797, “A model for the antagonist binding site on the adenosine A1 receptor, based on steric, electrostatic, and hydrophobic properties” (J Med Chem, 1990)
